From patent US5719151A, “Substituted benzene compounds” (priority 1990, dated 1998)
Like-named read-outs stand apart in the source and are kept apart here.

Legend:
[1] = molecular target: poly(ADP-ribose)polymerase (Homo sapiens, UniProt P09874); experiment: Determination of inhibitory effect on poly(ADP-ribose)polymerase (enzyme activity, Ki, Km); assay type: biochemical
Description: The enzyme activity was assayed by standard procedures (Murray, B. et al., Mutation Research (1986) 165:191-198). This reference also describes the estimation of the Km (Michaelis Constant) values. The estimation of the Ki (inhibitory constant) values was performed by calculating the Km value in the presence or absence of known concentrations of the enzyme inhibitor. Standard biochemical calculations were then used to calculate the Ki value. The smaller K1 values indicate stronger inhibition. The degree of enzyme inhibition shown in the Table was estimated by measuring the enzyme activity in the presence and absence of the indicated concentrations of inhibitor.

[2] = system: Trypanosoma brucei rhodesiense (GUP 2814); experiment: Antigenic switching in Trypanosoma brucei rhodesiense (GUP 2814) in axenic culture, ILTat 1.63 to ILTat 1.22; assay type: cell-based
Description: (§1) 1. TRYPANOSOMES: Stabilates of two clones, GUP 2889 and GUP 2814 were used.
Specific rabbit antisera and ascites fluid against specific Variable Antigen Types were used for trypanolysis and immunofluorescence at the appropriate dilutions.
(§2) Antibody mediated lysis of a specific VAT of bloodstream form trypanosomes was performed by incubating an appropriate aliquot of a recently prepared trypanosome suspension at room temperature for 1 hour, in appropriately diluted specific antibody and guinea pig complement. The trypanosomes were observed and counted with inverted phase-contrast microscopy at a magnification of 150× to check for viability and to observe lysed trypanosomes, which appeared stumpy and vacuolated.
(§3) Cultures were initiated with aliquots of the above prepared trypanosome suspension. Duplicate T25 flasks, with 10 ml of medium were prepared for each experimental parameter examined. In each experiment the trypanosome density was determined at the initiation of the culture and at the end of the axenic culture period (usually after 18-24 hours) using a Neubaurer haemocytometer.
The prevalences of VATs in each cultures population were determined using immunofluorescence as follows: contents of one of the duplicate flasks (or both) were transferred to a universal bottle, and the trypanosomes were sedimented by centrifugation at 3,000 rpm at room temperature in a bench-top MSE centrifuge. The trypanosomes were resuspended in 10 μl of 20%(v/v) FCS supplemented EMEM* medium. Samples of this suspension were applied as smears to clean microscope slides coated with 0.1% poly-L-Lysine for immunofluorescence (IF) analysis for the frequency of specific VATs. Prevalence estimates of VATs were based on counts of more than 1000 labeled trypanosomes per flask.
Indirect immunofluorescence on acetone-fixed trypanosomes on slides was performed essentially according to the method of van Meirvenne et al., (Ann. Soc. Belge Med. Trop. (1975) 55: 1-23), using appropriately diluted rabbit antiserum or undiluted monoclonal lantibodies derived from hybridoma culture supernatants. Trypanosomes were visualized with fluorescein isothiocyanate(FITC)-labeled conjugated anti rabbit-FITC antibodies (Sigma:No.F-0382) for VAT 1.22 and 1.3, and with anti-mouse-FITC (Sigma:No.F-0257) for VATs 1.64c, 1.63a and 1.61. These secondary antibodies were diluted in PBS (pH8.0) and also contained Evans Blue (1:10,000 w/v) and Ethidium Bromide (5 μg/ml) as a counterstain.
Estimates of the prevalence of particular trypanosome VATs were based on counts of at least 200 trypanosomes, and at least 1000 trypanosomes were counted if the frequency of positive organisms were very low.
The rate of switching was estimated essentially as described by Turner and Barry (Parasitology (1989) 99: 67-75). Briefly, the size of the trypanosome population expressing aminor VAT was calculated at the time points […] as Nt1 and Nt2 respectively, from the mean total population density and from the prevalence of that VAT in the population.
(§4) The instantaneous rate of switching/cell/generation, σi, has been calculated. These values of σ are estimates of the per capita rate for switching to minor VATs. However, these estimates have been made in populations manipulated to consist of a major VAT, the prevalence of which is much higher than that of minor VATs; switching from minor to major VATs has therefore been assumed to be negligible, as has interswitching between minor VATs. Growth rates, r, have been expressed as population doubling times Td, where Td=loge2/r. Switching rates values are presented in the tables as finite, of, rate estimates.
Two clones of Trypanosoma brucei rhodesiense, GUP 2889 and […] were initiated in culture with viable trypanosomes after in vitro trypanolysis of heterotype VAT 1.22 with GUPM 27.1 monoclonal antibody. Viable populations of these trypanosomes were incubated with various concentrations of the poly(ADP-Ribose)polymerase inhibitors. […]

[3] = system: Trypanosoma brucei rhodesiense; experiment: Growth of Trypanosoma brucei rhodesiense in axenic culture (growth inhibition); assay type: cell-based
Description: as §1
Prior to propagation in vitro cell free culture conditions the parasites from stabilates were expanded in CD1 (8-9 week old) female mice. Infected mouse blood obtained by cardiac puncture in EMEM* with 20 U/ml heparin was used for the preparation of blood smears for immunofluorescence analysis.
as §2, §3, §4
Two clones of Trypanosoma brucei rhodesiense, GUP 2889 and […] were initiated in culture with viable trypanosomes after in vitro trypanolysis of heterotype VAT 1.22 with GUPM 27.1 monoclonal antibody. Viable populations of these trypanosomes were incubated with various concentrations of the poly(ADP-Ribose)polymerase inhibitors. The effect of each concentration of inhibitor was tested in duplicate in T25 culture flasks set up for the axenic culture inhibition experiments. Growth was monitored after 24 hours of incubation at 37° C. in 4-5% CO2 in air. Relative growth inhibition and frequency of antigenic switching of were calculated.
In this assay a continuously growing bloodstream form trypanosome population was incubated in serial inhibitor dilutions in T25 culture flasks using an inoculum of 2×10^4 ·1×10^5 trypanosomes per ml. After an incubation period of 24-48 hours in axenic culture at 37° C. in a 4-5% CO2 incubator, trypanosomes were counted using a haemocytometer and growth inhibition was determined based on the number of generations (kt) of inhibitor treated cultures compared to controls. […] Growth is reduced by up to 17% when 3-N-formylluminol(3-N-FL) is present in the concentration range of 50-400 μM, Table 7.

Sequence of poly(ADP-ribose)polymerase (P09874 whole entry): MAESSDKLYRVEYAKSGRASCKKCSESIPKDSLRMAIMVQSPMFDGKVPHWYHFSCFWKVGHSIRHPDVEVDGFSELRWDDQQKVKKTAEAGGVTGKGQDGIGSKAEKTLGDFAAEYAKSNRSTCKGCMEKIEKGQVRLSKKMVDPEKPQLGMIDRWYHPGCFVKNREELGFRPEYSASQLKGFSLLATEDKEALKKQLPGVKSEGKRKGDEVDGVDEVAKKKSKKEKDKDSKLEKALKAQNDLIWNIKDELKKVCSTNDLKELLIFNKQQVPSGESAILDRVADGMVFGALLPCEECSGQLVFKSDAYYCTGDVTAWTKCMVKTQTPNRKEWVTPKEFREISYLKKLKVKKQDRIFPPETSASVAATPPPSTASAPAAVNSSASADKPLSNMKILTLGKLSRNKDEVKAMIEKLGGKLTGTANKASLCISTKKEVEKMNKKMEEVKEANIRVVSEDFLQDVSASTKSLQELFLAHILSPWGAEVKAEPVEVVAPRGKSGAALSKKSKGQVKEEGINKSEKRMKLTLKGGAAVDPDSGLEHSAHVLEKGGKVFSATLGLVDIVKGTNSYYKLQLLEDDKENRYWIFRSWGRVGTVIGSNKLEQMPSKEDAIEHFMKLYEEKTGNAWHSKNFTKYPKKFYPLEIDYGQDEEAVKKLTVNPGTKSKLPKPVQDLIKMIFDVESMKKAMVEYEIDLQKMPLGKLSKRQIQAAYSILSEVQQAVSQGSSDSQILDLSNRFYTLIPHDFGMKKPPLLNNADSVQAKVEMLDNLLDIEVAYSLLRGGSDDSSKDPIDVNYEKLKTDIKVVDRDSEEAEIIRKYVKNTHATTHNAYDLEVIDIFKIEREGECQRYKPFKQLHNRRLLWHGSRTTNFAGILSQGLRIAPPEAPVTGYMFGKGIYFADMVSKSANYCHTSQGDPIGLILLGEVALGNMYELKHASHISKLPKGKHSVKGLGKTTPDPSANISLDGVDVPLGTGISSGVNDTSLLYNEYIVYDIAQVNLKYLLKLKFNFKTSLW

## NC(=O)c1cccc(NC=O)c1 [Compound 1, 3-formylaminobenzamide]
[1]; 5.0 μM, read-out: Inhibitor Activity (%)
  inhibition at 5 µM: 66%
[1]; poly(ADP-ribose)polymerase, read-out: Ki (Inhibition Constant)
  Ki: 1610 ± 150 nM
[2]; 1 mM, Horse Serum (Bristol), two of three experiments
  switching frequency, from ILTat 1.63 to 1.22: reproducible reduction of switching frequency
[2]; DHS/EMEM, 1.0 mM, control 210.8
  σf (finite switch rate per trypanosome per generation): 117.0 x10^-2
[2]; ES/EMEM (first experiment), 1.0 mM, control 5.3
  σf (finite switch rate per trypanosome per generation): 2.26 x10^-2
[2]; ES/EMEM (second experiment), 1.0 mM, control 2.17
  σf (finite switch rate per trypanosome per generation): 0.94 x10^-2
[2]; ES/EMEM, 0.5 mM, control 13.65
  σf (finite switch rate per trypanosome per generation): 0.95 x10^-2
[2]; FCS/EMEM, 1.0 mM, control 0.46
  σf (finite switch rate per trypanosome per generation): 0.72 x10^-2
[2]; Trypanosoma brucei, RHODESIENSE, read-out: RAS (relative antigenic switching), DHS/EMEM, 1.0 mM, control 100
  activity at 1000 µM: 55.5%
[2]; Trypanosoma brucei, RHODESIENSE, read-out: RAS (relative antigenic switching), ES/EMEM (first experiment), 1.0 mM, control 100
  activity at 1000 µM: 42.6%
[2]; Trypanosoma brucei, RHODESIENSE, read-out: RAS (relative antigenic switching), ES/EMEM (second experiment), 1.0 mM, control 100
  activity at 1000 µM: 43.5%
[2]; Trypanosoma brucei, RHODESIENSE, read-out: RAS (relative antigenic switching), ES/EMEM, 0.5 mM, control 100
  activity at 500 µM: 7%
[2]; Trypanosoma brucei, RHODESIENSE, read-out: RAS (relative antigenic switching), FCS/EMEM, 1.0 mM, control 100
  activity at 1000 µM: 136%
[3]; 0.5 to 2.0 mM
  reduction in growth rate: 7%
[3]; GUP 2814, DHS/EMEM, 1.0 mM, control 2.44
  kt (generation number): 2.29 doublings
[3]; GUP 2814, ES/EMEM (first experiment), 1.0 mM, control 2.02
  kt (generation number): 1.56 doublings
[3]; GUP 2814, ES/EMEM (second experiment), 1.0 mM, control 2.36
  kt (generation number): 2.14 doublings
[3]; GUP 2814, ES/EMEM, 0.5 mM, control 1.95
  kt (generation number): 2.09 doublings
[3]; GUP 2814, FCS/EMEM, 1.0 mM, control 2.143
  kt (generation number): 1.92 doublings
[3]; Trypanosoma brucei, RHODESIENSE, 0.5 mM, n = 6, control 1.00, read-out: Relative Growth Rate (S.D., n)
  activity at 500 µM: 105 ± 13%
[3]; Trypanosoma brucei, RHODESIENSE, 1.0 mM, n = 11, control 1.00, read-out: Relative Growth Rate (S.D., n)
  activity at 1000 µM: 103 ± 23%
[3]; Trypanosoma brucei, RHODESIENSE, 2.0 mM, n = 6, control 1.00, read-out: Relative Growth Rate (S.D., n)
  activity at 2000 µM: 93 ± 22%
[3]; Trypanosoma brucei, RHODESIENSE, GUP 2814, DHS/EMEM, 1.0 mM, control 100, read-out: Relative Growth
  activity at 1000 µM: 93.9%
[3]; Trypanosoma brucei, RHODESIENSE, GUP 2814, ES/EMEM (first experiment), 1.0 mM, control 100, read-out: Relative Growth
  activity at 1000 µM: 77.2%
[3]; Trypanosoma brucei, RHODESIENSE, GUP 2814, ES/EMEM (second experiment), 1.0 mM, control 100, read-out: Relative Growth
  activity at 1000 µM: 90.8%
[3]; Trypanosoma brucei, RHODESIENSE, GUP 2814, ES/EMEM, 0.5 mM, control 100, read-out: Relative Growth
  activity at 500 µM: 107%
[3]; Trypanosoma brucei, RHODESIENSE, GUP 2814, FCS/EMEM, 1.0 mM, control 100, read-out: Relative Growth
  activity at 1000 µM: 89.6%
